The target of test [1] is T1, mutant α-GAL (Homo sapiens, UniProt P06280, A97V).
T1 construct: was put into a fresh tube and used as the source of α-GAL; endogenous in cells; host or cells: T cell cultures established from blood of Fabry patients
T1 sequence (P06280 32-429 A97V): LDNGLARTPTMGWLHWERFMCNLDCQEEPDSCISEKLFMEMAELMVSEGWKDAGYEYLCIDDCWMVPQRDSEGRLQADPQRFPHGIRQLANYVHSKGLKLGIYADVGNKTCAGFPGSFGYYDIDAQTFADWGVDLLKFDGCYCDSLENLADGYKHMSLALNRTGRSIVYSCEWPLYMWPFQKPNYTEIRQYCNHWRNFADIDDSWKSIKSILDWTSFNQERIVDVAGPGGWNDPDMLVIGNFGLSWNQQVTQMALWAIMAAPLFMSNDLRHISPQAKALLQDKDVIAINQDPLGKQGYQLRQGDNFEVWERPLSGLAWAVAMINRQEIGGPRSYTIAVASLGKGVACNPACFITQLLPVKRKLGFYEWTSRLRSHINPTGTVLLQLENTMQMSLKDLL
The test can be described thus: T cell-based α-GAL enhancement assay, T cells from Fabry patients cultured with DGJ. More on the design: key to Enhancement Group / Enhancement ratio: E: enhanceable;; I: enhanceable (intermediate);; NE: not enhanceable;. The note with it: for α-GAL activity / dosage effect on α-GAL activity: A97V T cells. Summed up:
(§1)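 T cells expanded from patient or normal blood white cells in RPMI 1640 with serum, about 25 ng/ml IL-2 and PHA at 37° C, 5% CO2. Cultures held between 5×10^5 and 1.5×10^6 cells/ml.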

Test [2] has as its target T2, mutant α-GAL (Homo sapiens, UniProt P06280, C94S).
T2 construct: endogenous in cells; host or cells: T cell cultures established from blood of Fabry patients
T2 sequence (P06280 32-429 C94S): T1 sequence (P06280 32-429 A97V) with C63S, V66A
The test is described as above. The note with it: Fabry patient T cells, mutation C94S. More on the design: key to Enhancement Group / Enhancement ratio: E: enhanceable;; I: enhanceable (intermediate);; NE: not enhanceable;. Summed up:
as §1

This is an account of results in US11241422B2, “Methods for treatment of Fabry disease” (Amicus Therapeutics, Inc., priority 2006, dated 2022).

Residue numbers refer to the chain shown, from its start.

Take `OC[C@H]1NC[C@H](O)[C@@H](O)[C@H]1O` [DGJ, 1-deoxygalactonojirimycin]: the α-GAL activity entry at mutant α-GAL [1] (20 μM DGJ, 1 day of incubation) is “about 40 % of normal”; on mutant α-GAL [1] (20 μM DGJ, 4 days of incubation), 80 % of normal. Also, the “dosage effect on α-GAL activity” value is “dose-dependent manner” at mutant α-GAL [1] (DGJ 2 nM to 20 μM) and “decrease in α-GAL activity” on mutant α-GAL [1] (DGJ 200 μM compared with 20 μM). The “increase of activity in the presence of DGJ” value on mutant α-GAL [1] (A97V mutation, T cells) came to 6 fold. Also, the “DGJ concentration of optimal enhancement of activity” value on mutant α-GAL [1] (A97V mutation, three experiments, 2 nM-200 μM) was found to be 20 µM. The “Enhancement Group” value is “E” on mutant α-GAL [1] (Fabry patient T cells, mutation A97V) and “NE” on mutant α-GAL [2]. Also, the “Activity (% Normal) (+DGJ)” value at mutant α-GAL [1] (Fabry patient T cells, mutation A97V, 20 μM DGJ) worked out at 75 % Normal; on mutant α-GAL [2] (20 μM DGJ), 2 % Normal. Further, the Enhancement ratio on mutant α-GAL [1] (Fabry patient T cells, mutation A97V, +DGJ vs −DGJ) is listed as 5.5; at mutant α-GAL [2] (+DGJ vs −DGJ), “NE”.
